Data reported in patent US12686665B2, “Bicyclic fused ring derivative or salt thereof and pharmaceutical composition comprising same” (YUHAN CORPORATION, priority 2021, dated 2026).
Where a name gives a salt, the structure may show the parent alone.

Key:
[1] = molecular target: T1, recombinant human MAO-A (monoamine oxidase-A) (Homo sapiens, UniProt P21397); test: Amplex Red HRP-coupled amine oxidase assay, recombinant human MAO-A; type: biochemical; details: 0.5 mM tyramine substrate, read-out: Inhibitory activity (IC50, nM) MAO-A
T1 construct: purchased Sigma-Aldrich
T1 sequence (P21397 1-527): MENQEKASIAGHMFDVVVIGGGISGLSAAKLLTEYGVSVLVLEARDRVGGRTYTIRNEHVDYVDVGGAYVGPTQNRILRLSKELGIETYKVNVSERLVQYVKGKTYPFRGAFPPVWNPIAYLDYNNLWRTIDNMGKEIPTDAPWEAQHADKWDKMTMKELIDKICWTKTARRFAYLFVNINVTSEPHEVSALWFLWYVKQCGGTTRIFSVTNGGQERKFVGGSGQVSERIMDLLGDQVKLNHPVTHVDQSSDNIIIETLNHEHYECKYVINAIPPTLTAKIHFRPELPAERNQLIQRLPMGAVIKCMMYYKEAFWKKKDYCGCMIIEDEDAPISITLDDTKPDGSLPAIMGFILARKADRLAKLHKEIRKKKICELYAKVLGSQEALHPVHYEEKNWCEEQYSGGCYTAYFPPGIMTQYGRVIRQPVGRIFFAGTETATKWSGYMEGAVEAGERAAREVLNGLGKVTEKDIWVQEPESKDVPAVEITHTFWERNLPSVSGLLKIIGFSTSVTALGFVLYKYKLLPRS
In short: (§1)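 Enzyme preincubated 60 min at 37 °C with compound (six-point curve, 1% DMSO final) in 50 mM sodium phosphate pH 7.4, then Amplex Red 400 μM and HRP 2 U/mL added with substrate: MAO-A 0.5 mM tyramine, MAO-B 1 mM benzylamine, DAO 1 mM putrescine. Resorufin fluorescence read after 1 h; IC50 by four-parameter logistic fit.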

[2] = molecular target: T2, recombinant human MAO-B (monoamine oxidase-B) (Homo sapiens, UniProt P27338); test: Amplex Red HRP-coupled amine oxidase assay, recombinant human MAO-B; type: biochemical; details: 1 mM benzylamine substrate, read-out: Inhibitory activity (IC50, nM) MAO-B
T2 construct: purchased Sigma-Aldrich
T2 sequence (P27338 1-520): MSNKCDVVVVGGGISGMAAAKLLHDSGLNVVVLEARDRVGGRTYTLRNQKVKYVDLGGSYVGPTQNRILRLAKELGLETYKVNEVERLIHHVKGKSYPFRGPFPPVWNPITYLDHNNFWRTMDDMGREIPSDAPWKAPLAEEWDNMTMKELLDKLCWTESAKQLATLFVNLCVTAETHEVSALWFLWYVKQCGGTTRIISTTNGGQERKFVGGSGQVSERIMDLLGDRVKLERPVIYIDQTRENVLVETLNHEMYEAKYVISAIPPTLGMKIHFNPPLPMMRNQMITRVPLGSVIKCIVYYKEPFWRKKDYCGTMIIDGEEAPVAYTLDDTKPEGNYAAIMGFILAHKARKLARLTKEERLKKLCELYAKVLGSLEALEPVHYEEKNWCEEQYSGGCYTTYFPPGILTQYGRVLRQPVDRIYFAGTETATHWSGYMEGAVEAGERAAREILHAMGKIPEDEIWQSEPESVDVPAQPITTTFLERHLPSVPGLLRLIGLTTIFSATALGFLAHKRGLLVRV
In short: as §1

[3] = molecular target: T3, recombinant human DAO (diamine oxidase) (Homo sapiens, UniProt P19801); test: Amplex Red HRP-coupled amine oxidase assay, recombinant human DAO; type: biochemical; details: 1 mM putrescine substrate, read-out: Inhibitory activity (IC50, nM) DAO
T3 construct: purchased R&D systems
T3 sequence (P19801 20-751): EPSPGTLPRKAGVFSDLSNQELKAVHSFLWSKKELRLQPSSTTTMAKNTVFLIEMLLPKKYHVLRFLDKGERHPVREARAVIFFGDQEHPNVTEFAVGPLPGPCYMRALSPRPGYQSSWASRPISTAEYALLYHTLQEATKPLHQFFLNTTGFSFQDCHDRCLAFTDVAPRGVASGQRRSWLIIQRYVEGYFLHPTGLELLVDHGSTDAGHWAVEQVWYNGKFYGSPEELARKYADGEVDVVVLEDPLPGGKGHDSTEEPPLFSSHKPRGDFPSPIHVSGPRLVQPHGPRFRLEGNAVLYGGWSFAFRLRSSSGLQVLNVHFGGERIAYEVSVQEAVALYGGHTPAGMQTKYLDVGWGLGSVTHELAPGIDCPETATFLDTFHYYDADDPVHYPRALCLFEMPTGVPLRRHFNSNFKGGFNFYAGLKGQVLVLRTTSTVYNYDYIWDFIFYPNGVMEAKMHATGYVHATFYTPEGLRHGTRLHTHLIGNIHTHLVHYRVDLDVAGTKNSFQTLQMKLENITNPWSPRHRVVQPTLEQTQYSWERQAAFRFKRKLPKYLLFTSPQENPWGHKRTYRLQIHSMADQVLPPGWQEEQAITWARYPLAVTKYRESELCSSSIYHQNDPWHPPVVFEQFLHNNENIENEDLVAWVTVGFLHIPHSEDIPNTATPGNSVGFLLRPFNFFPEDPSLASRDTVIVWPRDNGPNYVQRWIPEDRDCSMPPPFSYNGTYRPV
In short: as §1

[4] = molecular target: T4, recombinant human Lysyl Oxidase-Like 2 (LOXL2) (Homo sapiens, UniProt Q9Y4K0); test: Amplex Red HRP-coupled amine oxidase assay, recombinant human LOXL2; type: biochemical; details: 60 min incubation with enzyme at 37° C., putrescine substrate, read-out: Inhibitory activity (IC50, nM) human LOXL2
T4 construct: purchased R&D systems
T4 sequence (Q9Y4K0 26-774): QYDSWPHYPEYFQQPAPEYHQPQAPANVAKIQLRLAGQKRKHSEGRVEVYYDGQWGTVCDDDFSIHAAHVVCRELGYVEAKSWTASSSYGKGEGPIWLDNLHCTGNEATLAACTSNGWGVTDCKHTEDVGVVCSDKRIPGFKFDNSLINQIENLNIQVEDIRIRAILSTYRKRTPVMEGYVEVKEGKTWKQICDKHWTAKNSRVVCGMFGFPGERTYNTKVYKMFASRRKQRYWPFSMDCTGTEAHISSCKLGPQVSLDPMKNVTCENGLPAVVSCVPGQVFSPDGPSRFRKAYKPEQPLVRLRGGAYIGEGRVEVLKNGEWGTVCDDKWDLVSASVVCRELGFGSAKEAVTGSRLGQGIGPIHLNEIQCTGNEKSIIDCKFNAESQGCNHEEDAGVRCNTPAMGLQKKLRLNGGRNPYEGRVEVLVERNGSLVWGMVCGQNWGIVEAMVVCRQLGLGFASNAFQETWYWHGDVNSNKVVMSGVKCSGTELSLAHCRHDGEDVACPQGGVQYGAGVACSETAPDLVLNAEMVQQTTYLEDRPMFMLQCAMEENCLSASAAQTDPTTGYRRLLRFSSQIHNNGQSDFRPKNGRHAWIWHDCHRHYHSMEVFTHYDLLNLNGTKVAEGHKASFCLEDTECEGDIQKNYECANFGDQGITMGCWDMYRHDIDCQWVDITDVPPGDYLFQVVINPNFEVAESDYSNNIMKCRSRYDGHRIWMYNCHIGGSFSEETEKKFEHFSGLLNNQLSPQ
In short: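 Putrescine substrate (30 mM) in 50 mM sodium phosphate pH 7.4, 37 °C; compounds preincubated 60 min with enzyme, 1% DMSO final, six-point curves. H2O2 detected via 400 μM Amplex Red/2 U/mL HRP, fluorescence (ex 530/em 590 nm) after 1 h; IC50 from four-parameter logistic fit of % signal reduction.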

[5] = tested on: mouse bleomycin-mediated lung injury model; details: cited from earlier work
[6] = tested on: UUO animal model causing kidney disease; details: cited from earlier work
[7] = tested on: liver and cardiacfibrosis; details: in vivo; cited from earlier work

Compound | IC50 [1] [nM] | IC50 [2] [nM] | IC50 [3] [nM] | IC50 [4] [nM] | fibrosis [5] | renal fibrosis [6] | liver and cardiac fibrosis [7]
CNS(=O)(=O)c1ccc(OC)c(-c2cc(C(=O)OC)cc3c2nnn3C/C(F)=C/CN)c1 [Example 117, methyl (Z)-1-(4-amino-2-fluorobut-2-en-1-yl)-4-(2-methoxy-5-(N-methylsulfamoyl)phenyl)-1H-benzo[d][1,2,3]triazol-6-carboxylate hydrochloride] | > 100000 | 46600 | 4440 | 11.9 |  |  | 
CCN(CC)S(=O)(=O)c1ccc(OC)c(-c2cc(C(=O)OC)cc3c2nnn3C/C(F)=C/CN)c1 [Example 119, methyl (Z)-1-(4-amino-2-fluorobut-2-en-1-yl)-4-(5-(N,N-diethylsulfamoyl)-2-methoxyphenyl)-1H-benzo[d][1,2,3]triazol-6-carboxylate hydrochloride] | > 100000 | > 100000 | 14500 | 47.3 |  |  | 
NC/C=C(\F)Cn1cnc2c(-c3cncnc3)cc(C(F)(F)F)cc21 [Example 175, (Z)-3-fluoro-4-(4-(pyrimidin-5-yl)-6-(trifluoromethyl)-1H-benzo[d]imidazol-1-yl)but-2-en-1-amine hydrochloride] | > 100000 | > 100000 | 2580 | 259 |  |  | 
Cn1nccc1-c1cc(C(F)(F)F)cc2c1ncn2C/C(F)=C/CN [Example 176, (Z)-3-fluoro-4-(4-(1-methyl-1H-pyrazol-5-yl)-6-(trifluoromethyl)-1H-benzo[d]imidazol-1-yl) but-2-en-1-yl-amine hydrochloride] | > 100000 | > 100000 | 26700 | 92.4 |  |  | 
Cc1cc(-c2cc(C#N)cc3c2ncn3C/C(F)=C/CN)n(C)n1 [Example 194, (Z)-1-(4-amino-2-fluorobut-2-en-1-yl)-4-(1,3-dimethyl-1H-pyrazol-5-yl)-1H-benzo[d]imidazol-6-carbonitrile hydrochloride] | 36800 | > 100000 | 7590 | 105 |  |  | 
NCc1cc(Oc2cccc(C(=O)N3C[C@@H](O)[C@H](F)C3)c2)nc(C(F)(F)F)c1 [PAT-1251] |  |  |  |  | significantly reduced fibrosis |  | 
NC/C=C(\F)CS(=O)(=O)c1cccc2cccnc12 [PXS-5505] |  |  |  |  |  | significantly reduced renal fibrosis | 
N#CCCN [β-Aminopropionitrile] |  |  |  |  |  |  | improve liver and cardiacfibrosis

Further lines, with some results ahead:

IC50 [1] [nM] | IC50 [2] [nM] | IC50 [3] [nM] | IC50 [4] [nM] | Compound | fibrosis [5] | renal fibrosis [6] | liver and cardiac fibrosis [7]
26900 | > 100000 | 5400 | 273 | CC(=O)c1ccc(F)c(-c2cc(C(F)(F)F)cc3c2ncn3C/C(F)=C/CN)c1 [Example 169, (Z)-1-(3-(1-(4-amino-2-fluorobut-2-en-1-yl)-6-(trifluoromethyl)-1H-benzo[d]imidazol-4-yl)-4-fluorophenyl)ethan-1-one hydrochloride] |  |  | 
17800 | 51600 | 3520 | 311 | NC/C=C(\F)Cn1cnc2c(-c3cccnc3)cc(C(F)(F)F)cc21 [Example 172, (Z)-3-fluoro-4-(4-(pyridin-3-yl)-6-(trifluoromethyl)-1H-benzo[d]imidazol-1-yl)but-2-en-1-amine hydrochloride] |  |  | 
15400 | > 100000 | 3730 | 269 | NC/C=C(\F)Cn1cnc2c(-c3cncc(F)c3)cc(C(F)(F)F)cc21 [Example 173, (Z)-3-fluoro-4-(4-(5-fluoropyridin-3-yl)-6-(trifluoromethyl)-1H-benzo[d]imidazol-1-yl)but-2-en-1-amine hydrochloride] |  |  | 
81200 | > 100000 | 2210 | 304 | NC/C=C(\F)Cn1cnc2c(-c3cncc(Cl)c3)cc(C(F)(F)F)cc21 [Example 174, (Z)-4-(4-(5-chloropyridin-3-yl)-6-(trifluoromethyl)-1H-benzo[d]imidazol-1-yl)-3-fluoro-but-2-en-1-amine hydrochloride] |  |  | 
> 100000 | > 100000 | 1820 | 35.1 | CNS(=O)(=O)c1ccc(OC)c(-c2cc(C#N)cc3c2ncn3C/C(F)=C/CN)c1 [Example 183, (Z)-3-(1-(4-amino-2-fluorobut-2-en-1-yl)-6-cyano-1H-benzo[d]imidazol-4-yl)-4-methoxy-N-methylbenzenesulfonamide hydrochloride] |  |  | 
> 100000 | > 100000 | 5560 | 159 | N#Cc1cc(-c2ccn(CCO)n2)c2ncn(C/C(F)=C/CN)c2c1 [Example 195, (Z)—1-(4-amino-2-fluorobut-2-en-1-yl)-4-(1-(2-hydroxyethyl)-1H-pyrazol-3-yl)-1H-benzo[d]imidazol-6-carbonitrile hydrochloride] |  |  | 
